In patent publication US20080220066A1 (HENDERSON MORLEY PLC, priority 2005, published 2008):
Converted amounts (≈) assume the structure as drawn. “And” between values parts separate entries of the source, which are not always exact repeats. Equal values may be shown once. Read-outs that look alike come from different tables or passages of the source.

Experiments:
Adenovirus = experiment: 50% plaque inhibitory concentration, Adenovirus; conditions: unidentified adenovirus, A549, read-out: Digoxin IC50
physchem = conditions: 32 °C, aqueous with cosolvent or surfactant or cyclodextrin, thermodynamic from solid
MRC5 cells [1] = experiment: MRC5 cell morphology / tolerance; conditions: Frusemide 1.0 mg/ml; Digoxin 0.05 ug/ml; combined dosage at individual ID 50; 72 hours
[2] = for Flux: Q24 divided by 24
[3] = system: Herpes simplex virus (HSV); experiment: HSV standard plaque inhibition assay; type: cell-based
Text: Using Herpes simplex virus (HSV), 50% plaque inhibitory dose (1D50) were established using the standard plaque inhibition assay.

[4] = Experimental: Permeation experiments were carried out using all glass Franz-type cells incorporating callous plantar skin between a donor and receptor phase. Callous cuttings of approximately 0.6 cm diameter were required to fit the customised ‘franz’ cells used. Consequently, an in vitro permeation study was conducted that used 5 cells per gel treatment, with no more than a total of 15 cells being run simultaneously. […] An infinite dose of gel (˜1 g) was added to each donor compartment via syringe and PEG400, being used as a receptor phase in each, thereby enabling adequate ‘sink’ conditions, limiting hydrodynamic boundary effects and tissue swelling effects. The applied gel was occluded with glass cover slips and the cells stirred in a thermostatically controlled water bath, maintaining the skin temperature at 32° C. […] A total of five replicates were carried our for each gel. All samples were immediately analysed by HPLC.
The breakthrough time was taken from the point at which permeant was first detected in the receptor phase (dependent on the MDL for each permeant). Lag times were calculated by extrapolating the linear section of the cumulative amount permeated (steady state flux) to the X-axis (time).

MRC5 cells [5] = conditions: uninfected cells; drug(s) at VZV ID 50 concentrations
Cytomegalovirus = experiment: 50% plaque inhibitory concentration, Cytomegalovirus; conditions: Human betaherpesvirus 5, MRC5, read-out: Digoxin IC50
MRC5 cells [6] = experiment: MRC5 cell replication; conditions: Frusemide 1.0 mg/ml; Digoxin 0.05 μg/ml; both at their VZV ID50 concentrations
[7] = Saturated solubility in solvents and co-solvent mixes at 32° C
[8] = system: Herpes simplex virus (HSV); experiment: HSV virus yield (infectious virus particle production); type: cell-based; conditions: solvent as listed per compound; Torasemide at 90 μg/ml
[9] = system: Varicella Zoster Virus (VZV); experiment: microbe, parasite or virus in culture; conditions: Human alphaherpesvirus 3, MRC5, read-out: Digoxin IC50
[10] = system: Varicella Zoster Virus (VZV)
[11] = ‘Max’ Furosemide Gel Formulation

## C[C@H]1O[C@@H](O[C@H]2[C@@H](O)C[C@H](O[C@H]3[C@@H](O)C[C@H](O[C@H]4CC[C@@]5(C)[C@H](CC[C@@H]6[C@@H]5C[C@@H](O)[C@]5(C)[C@@H](C7=CC(=O)OC7)CC[C@]65O)C4)O[C@@H]3C)O[C@@H]2C)C[C@H](O)[C@@H]1O [Digoxin]
Adenovirus
  IC50: 0.077 ± 0.022 mg/L (≈ 0.0986 µM)
physchem
  solubility at 24 h: 0.433 mg/mL (≈ 554 µM)
MRC5 cells [1]
  tolerance by MRC5 cells (morphology, replication): very well tolerated
[2]; 40:40:20 gels
  maximum concentrations observed in the receptor phase: 42.47 µg/mL
[2]; Ampule Formulation
  Release date: 8.1 μg cm^−2 h^0.5
  Flux: 1.4 μg cm^−2 h^−1
[2]; Ampule Formulation (8% HPC)
  Q24: 34 μg cm^−2
[2]; Gel 1:1, pH 7
  % applied dose: 1.6%
  Release Rate: 3.48 μg cm^−2 h^0.5
  Flux: 0.59 μg cm^−2 h^−1
[2]; Gel 1:1, prototype 40:40:20 mix, pH 7, 24 h
  Q24: 14.07 μg cm^−2
[2]; Gel 14:1 (F:D), prototype 40:40:20 mix, […] 981NF, pH 5, 24 h
  Q24: 42.47 μg cm^−2
[2]; Gel 14:1, pH 5
  Flux: 1.77 μg cm^−2 h^−1
[2]; Gel 14:1, pH 5, assuming 2 g of gel in donor
  % applied dose: 4.0%
[2]; Gel 14:1, pH 5, gradient of square root of time plot
  Release Rate: 10.18 μg cm^−2 h^0.5
[2]; Gel 14:1, pH 7
  % applied dose: 1.6%
  Flux: 0.73 μg cm^−2 h^−1
[2]; Gel 14:1, pH 9
  % applied dose: 0.1%
  Flux: 0.14 μg cm^−2 h^−1
[2]; Gel 14:1, prototype 40:40:20 mix, pH 7, 24 h
  Q24: 17.62 μg cm^−2
[2]; Gel 14:1, prototype 40:40:20 mix, pH 9, 24 h
  Q24: 3.34 μg cm^−2
[2]; HPC Formulation
  Release date: 245 μg cm^−2 h^0.5 and 243 μg cm^−2 h^0.5
  Flux: 39 μg cm^−2 h^−1
[2]; HPC Formulation (revised 50:40:10 gel, 8% HPC, pH 5, 14:1)
  Q24: 934 μg cm^−2
[2]; Ultrez Formulation
  Release date: 274 μg cm^−2 h^0.5
  Flux: 45 μg cm^−2 h^−1
[2]; Ultrez Formulation (revised 50:40:10 gel, […] Ultrez, pH 5, 14:1)
  Q24: 1138 μg cm^−2
[2]; pH 7
  reduction of release rate, 1:1 Gel versus 1:14 Gel: 1.2 fold
[3]
  ICVT activity: potent ICVT activity
  ID50: 60 ng per ml
  comparative ‘ICVT-ivities’: as effective as Lanoxin
[3]; BHK-21, read-out: Digoxin IC50
  IC50: 0.03 mg/L (≈ 0.0384 µM)
[3]; MRC5, read-out: Digoxin IC50
  IC50: 0.02 ± 0.0075 mg/L (≈ 0.0256 µM)
[3]; Vero, read-out: Digoxin IC50
  IC50: 0.06 mg/L (≈ 0.0768 µM)
[4]; 40:40:20 Prototype gel
  Lag time: 100 h
  Permeation co-efficient: 1.1 × 10^−3 cmhr^−1
  Steady state flux: 1.14 ± 0.28 μc cm^−2hr^−1
[4]; Dig/Fur Ampule Gel Formulation
  Breakthrough time: ~24 h
  Lag time: 82 h
  Steady state flux: 0.069 μc cm^−2hr^−1
[4]; at 144 hours
  reduction of amount permeated, prototype versus ‘Max’ Digoxin gel: 3.36 fold
[4]; prototype gel
  steady state of flux: 1.14±0.28 μg cm^−2 hr^−1
[4]; prototype gel, at 144 hours
  amount permeated: 30 μg cm^−2
[4]; ‘Max’ Digoxin Gel Formulation
  Lag time: 18 h
  Steady state flux: 1.015 μc cm^−2hr^−1
[4]; ‘Max’ Digoxin Gel Formulation (50:40:10, 8% HPC, pH 5)
  Breakthrough time: ~1 h
[4]; ‘Max’ Digoxin gel formulation
  steady state of flux: 1.015 μg cm^−2 hr^−1
[4]; ‘Max’ Digoxin gel, at 144 hours
  amount permeated: 101 μg cm^−2
[4]; [11]
  Lag time: 68 h
  Steady state flux: 0.455 μc cm^−2hr^−1
[4]; ‘Max’ Furosemide Gel Formulation (50:20:20:10, 8% HPC, pH 5)
  Breakthrough time: ~12 h
MRC5 cells [5]
  MRC5 cell metabolism, MTT assay: normal levels of metabolism
Feline herpesvirus; each drug at its IC50, alone or both combined, No Drug 50
  Virus particles per cell: 0.75
Feline herpesvirus; each drug at its IC50, individually or in combination
  production of infectious virus reduced by: 98.5%
Feline herpesvirus; each drug individually at its IC50
  remaining low level of virus replication: 0.5%
Cytomegalovirus
  IC50: 0.02 ± 0.0075 mg/L (≈ 0.0256 µM)
MRC5 cells [6]
  replication of uninfected MRC5 cells: replicated to normal yields
[7]; 32° C
  solubility in water: relatively insoluble in water
[7]; 32 °C, organic solvent or mixture, thermodynamic from solid
  solubility at 24 h: 6.27 mg/mL (≈ 8020 µM)
[7]; 40:40:20 co-solvents mix
  number of moles in saturated solution: 0.55 μmol cm^−3
  saturation limit: 433 μg cm^−3
[7]; 50:40:10 versus 40:40:20
  increase in solubility, second versus first co-solvent mix: −15 fold
[7]; ethanol, propylene glycol, PEG400, water, 32° C
  solubility in each individual solvent: highest solubility in ethanol and propylene glycol with relatively low solubility in PEG400 and water
[8]
  HSV yield: HSV yield reduced
[9]
  IC50: 0.02 ± 0.0075 mg/L (≈ 0.0256 µM)
[10]; Digoxin 0.025 ug/ml, HIGH MOI
  VZV plaques: TNTC
[10]; Digoxin 0.025 ug/ml, INTERMEDIATE MOI
  VZV plaques: TNTC
[10]; Digoxin 0.025 ug/ml, LOW MOI, control 61
  VZV plaques: 55^
[10]; Digoxin 0.050 ug/ml, HIGH MOI
  VZV plaques: TNTC
[10]; Digoxin 0.050 ug/ml, INTERMEDIATE MOI
  VZV plaques: TNTC
[10]; Digoxin 0.050 ug/ml, LOW MOI, control 61
  VZV plaques: 21^3
[10]; Digoxin 0.100 ug/ml, HIGH MOI
  VZV plaques: 0^4
[10]; Digoxin 0.100 ug/ml, INTERMEDIATE MOI
  VZV plaques: 0^4
[10]; Digoxin 0.100 ug/ml, LOW MOI, control 61
  VZV plaques: 0^4
[10]; Frusemide at 1.0 mg/ml, Digoxin at 0.05 ug/ml
  VZV plaque formation inhibited by: 50%
[10]; High MOI (100 × Low), drug(s) at IC50
  VZV plaques: TNTC
[10]; Intermediate MOI (10 × Low), drug(s) at IC50
  VZV plaques: TNTC
[10]; Low MOI, drug(s) at IC50, Control 61
  VZV plaques: 21 and 21^5
[10]; each at respective IC50, Low MOI
  VZV plaque formation inhibited by: about 50%
